Laboratory results from ChEMBL document CHEMBL1201862, “PubChem BioAssay data set” (2004).
Blank lines part the entries; values can stand above or below the compound they belong to. Active and inactive are the calls of the source.

What was measured:
[1] = target: Sphingosine 1-phosphate receptor 2 (Homo sapiens, UniProt O95136); assay: Dose Response Cell Based Assay for Agonists of the S1P2 Receptor of Purchased Analogues. [Related pubchem assays: 729, 843, 854, 736 ]; format: functional
[2] = target: Epstein-Barr nuclear antigen 1 (Epstein-Barr virus (strain B95-8) (HHV-4) (Human herpesvirus 4), UniProt P03211); assay: inhibition of EBV nuclear antigen 1 DNA binding – biochemical, fluorescence polarization, 1536-well, dose response (AID 2381); set-up: species or system human gammaherpesvirus 4;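 note: fluorescence polarization of a Cy5 DNA probe bound by EBNA-1 protein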
[3] = target: Lytic switch protein BZLF1 (Epstein-Barr virus (strain B95-8) (HHV-4) (Human herpesvirus 4), UniProt P03206); assay: inhibition of BZLF1 ZTA DNA binding – biochemical, fluorescence polarization, Epstein-Barr virus, 1536-well, counter-screen for EBNA-1 inhibitor project, dose response (AID 2377); set-up: species or system human gammaherpesvirus 4;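 note: fluorescence polarization of Cy5-labelled ZRE DNA probe bound by purified Zta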
[4] = NIH3T3 cell viability loss – ATP luminescence, mouse fibroblasts, counter-screen, dose response (AID 2010); format: functional, cell-based;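 note: cells exposed to compound for about 90 hours before reading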
[5] = cells
[6] = Trypanosoma cruzi growth suppression in host cells – NIH3T3 host cells, beta-gal luminescence, confirmation (AID 2044); format: functional, cell-based;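 note: intracellular parasites grown in NIH/3T3 mouse fibroblasts as host cells; luminescent beta-galactosidase reporter signal from transgenic T. cruzi replicating inside host cells; inhibitors lower the luminescence signal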
[7] = HIV-1 Vif–A3G interaction blockers – biochemical, TR-FRET, GST-Vif 1-94, biotin-A3G peptide, dose response retest, primary screen (AID 1117319); format: functional;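 note: TR-FRET signal of purified GST-Vif binding a biotinylated A3G peptide; inhibitors lower the FRET signal by blocking Vif and A3G binding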
[8] = target: NADPH oxidase 1 (Homo sapiens, UniProt Q9Y5S8); assay: Luminescence-based cell-based dose response assay to identify inhibitors of NADPH oxidase 1 (NOX1).; format: functional
[9] = target: Induced myeloid leukemia cell differentiation protein Mcl-1 (Homo sapiens, UniProt Q07820); assay: blockers of MCL1 binding to BIM peptide – biochemical, fluorescence polarization, BIM-BH3 peptide, 1536-well, dose response (AID 2217)
[10] = target: T1, Histone-lysine N-methyltransferase NSD2 (Homo sapiens, UniProt O96028); format: biochemical
T1 sequence (O96028 whole entry): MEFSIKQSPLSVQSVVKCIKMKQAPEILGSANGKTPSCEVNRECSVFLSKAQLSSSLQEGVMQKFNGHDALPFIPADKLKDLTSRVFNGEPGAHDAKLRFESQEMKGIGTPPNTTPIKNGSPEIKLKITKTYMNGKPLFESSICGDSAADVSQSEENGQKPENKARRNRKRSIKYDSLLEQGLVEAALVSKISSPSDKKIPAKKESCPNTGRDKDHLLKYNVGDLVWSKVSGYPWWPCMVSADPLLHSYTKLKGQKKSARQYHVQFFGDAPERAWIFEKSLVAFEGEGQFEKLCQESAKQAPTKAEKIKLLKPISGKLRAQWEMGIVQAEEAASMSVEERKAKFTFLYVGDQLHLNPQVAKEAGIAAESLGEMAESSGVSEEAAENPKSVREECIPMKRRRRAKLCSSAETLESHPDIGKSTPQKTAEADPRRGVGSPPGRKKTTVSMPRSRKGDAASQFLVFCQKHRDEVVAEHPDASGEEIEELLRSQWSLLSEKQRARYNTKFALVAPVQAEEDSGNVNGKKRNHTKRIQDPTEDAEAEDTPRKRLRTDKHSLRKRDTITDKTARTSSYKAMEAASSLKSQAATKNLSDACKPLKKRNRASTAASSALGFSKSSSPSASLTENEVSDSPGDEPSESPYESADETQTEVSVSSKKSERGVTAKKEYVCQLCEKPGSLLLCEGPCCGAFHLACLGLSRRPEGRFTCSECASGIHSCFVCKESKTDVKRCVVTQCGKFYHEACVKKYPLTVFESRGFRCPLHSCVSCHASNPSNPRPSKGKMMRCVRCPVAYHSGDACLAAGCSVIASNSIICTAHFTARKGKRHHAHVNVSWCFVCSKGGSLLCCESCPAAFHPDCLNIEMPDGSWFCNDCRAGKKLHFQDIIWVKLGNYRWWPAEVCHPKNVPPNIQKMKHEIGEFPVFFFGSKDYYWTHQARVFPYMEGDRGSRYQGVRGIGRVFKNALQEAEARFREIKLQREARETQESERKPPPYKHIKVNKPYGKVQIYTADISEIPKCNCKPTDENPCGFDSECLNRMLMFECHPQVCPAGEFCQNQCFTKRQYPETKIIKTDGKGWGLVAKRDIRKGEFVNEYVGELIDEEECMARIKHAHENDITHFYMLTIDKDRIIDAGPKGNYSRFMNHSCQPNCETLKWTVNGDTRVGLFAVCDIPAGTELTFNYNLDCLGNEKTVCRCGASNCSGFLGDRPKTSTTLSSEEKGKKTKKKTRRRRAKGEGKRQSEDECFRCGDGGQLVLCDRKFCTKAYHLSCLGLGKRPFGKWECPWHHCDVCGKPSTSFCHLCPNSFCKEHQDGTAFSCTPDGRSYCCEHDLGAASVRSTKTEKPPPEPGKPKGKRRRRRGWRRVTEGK

[11] = target: T2, Alkaline phosphatase, tissue-nonspecific isozyme (Homo sapiens, UniProt P05186); assay: potency against alkaline phosphatase TNAP – biochemical, luminescent, dose response, SAR follow-up (AID 1056)
T2 sequence (P05186 whole entry): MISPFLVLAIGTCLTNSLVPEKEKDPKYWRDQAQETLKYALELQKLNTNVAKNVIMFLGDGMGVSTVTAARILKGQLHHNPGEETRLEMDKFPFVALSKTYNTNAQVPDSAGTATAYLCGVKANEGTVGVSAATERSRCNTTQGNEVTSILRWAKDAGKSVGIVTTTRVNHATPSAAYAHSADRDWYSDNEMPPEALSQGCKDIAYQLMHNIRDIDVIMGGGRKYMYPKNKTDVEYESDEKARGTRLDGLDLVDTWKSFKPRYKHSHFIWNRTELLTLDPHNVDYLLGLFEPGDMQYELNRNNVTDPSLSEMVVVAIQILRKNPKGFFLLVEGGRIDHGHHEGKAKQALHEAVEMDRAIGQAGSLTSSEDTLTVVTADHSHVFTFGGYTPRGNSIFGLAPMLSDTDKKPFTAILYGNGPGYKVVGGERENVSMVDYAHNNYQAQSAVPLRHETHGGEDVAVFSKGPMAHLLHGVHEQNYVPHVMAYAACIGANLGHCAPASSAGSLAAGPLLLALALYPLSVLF

[12] = target: Large T antigen (Simian virus 40, UniProt P03070); format: functional, Betapolyomavirus macacae;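 note: Confirmatory-stage PubChem screen for compounds that inhibit SV40 T antigen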
[13] = target: Bcl-2-like protein 1 (Homo sapiens, UniProt Q07817); assay: blockers of BCLXL peptide binding – biochemical, fluorescence polarization, 1536-well, selectivity assay for MCL1 inhibitor project, dose response (AID 2218)
[14] = target: Alkaline phosphatase, placental type (Homo sapiens, UniProt P05187); assay: human placental alkaline phosphatase inhibition – biochemical, luminescence, confirmation (AID 1512); format: functional
[15] = target: Heat shock protein HSP 90-alpha (Homo sapiens, UniProt P07900); format: functional, organism-based
[16] = target: T3, Neuropeptide Y receptor type 2 (Homo sapiens, UniProt P49146); assay: Fluorescence counterscreen for potentiators or agonists of NPY-Y1: Cell-based high-throughput dose response assay for potentiators or agonists of NPY-Y2.; format: functional
T3 sequence (P49146 whole entry): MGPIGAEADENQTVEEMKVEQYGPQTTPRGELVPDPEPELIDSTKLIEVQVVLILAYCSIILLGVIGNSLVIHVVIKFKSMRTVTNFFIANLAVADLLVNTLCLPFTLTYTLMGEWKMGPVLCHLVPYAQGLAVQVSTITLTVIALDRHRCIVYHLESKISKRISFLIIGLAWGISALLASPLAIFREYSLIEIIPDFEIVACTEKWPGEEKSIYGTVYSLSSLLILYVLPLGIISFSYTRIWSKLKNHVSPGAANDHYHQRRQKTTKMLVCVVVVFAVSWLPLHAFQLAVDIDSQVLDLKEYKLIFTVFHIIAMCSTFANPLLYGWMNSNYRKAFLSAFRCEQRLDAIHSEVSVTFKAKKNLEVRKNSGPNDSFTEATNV

[17] = inhibition of ADAM10 peptide cleavage – biochemical, FRET peptide substrate, recombinant human ADAM10, selectivity assay for ADAM17 exosite inhibitor project, dose response (AID 743259);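 note: ADAM10 enzyme cleaving a FRET peptide substrate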
[18] = target: T4, Mannose-6-phosphate isomerase (Homo sapiens, UniProt P34949); assay: MPI inhibition at elevated mannose 6-phosphate – biochemical, fluorescence intensity, high mannose 6-phosphate, primary screen (AID 1220)
T4 sequence (P34949 whole entry): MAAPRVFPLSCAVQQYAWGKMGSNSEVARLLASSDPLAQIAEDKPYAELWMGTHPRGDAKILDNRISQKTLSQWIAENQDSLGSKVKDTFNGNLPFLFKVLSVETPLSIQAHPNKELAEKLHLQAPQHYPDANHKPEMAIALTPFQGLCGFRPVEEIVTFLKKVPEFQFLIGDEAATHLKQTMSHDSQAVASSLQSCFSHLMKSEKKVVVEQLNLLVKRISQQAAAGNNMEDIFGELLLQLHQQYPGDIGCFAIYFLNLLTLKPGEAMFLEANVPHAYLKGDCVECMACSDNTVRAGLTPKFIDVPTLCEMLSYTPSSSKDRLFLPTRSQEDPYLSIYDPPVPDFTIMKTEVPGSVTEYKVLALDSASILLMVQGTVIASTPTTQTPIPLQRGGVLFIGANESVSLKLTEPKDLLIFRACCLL

[19] = target: T5, Neuropeptide Y receptor type 1 (Homo sapiens, UniProt P25929); assay: Fluorescence-based dose response cell-based high-throughput screening assay for potentiators or agonists of NPY-Y1.; format: functional
T5 sequence (P25929 whole entry): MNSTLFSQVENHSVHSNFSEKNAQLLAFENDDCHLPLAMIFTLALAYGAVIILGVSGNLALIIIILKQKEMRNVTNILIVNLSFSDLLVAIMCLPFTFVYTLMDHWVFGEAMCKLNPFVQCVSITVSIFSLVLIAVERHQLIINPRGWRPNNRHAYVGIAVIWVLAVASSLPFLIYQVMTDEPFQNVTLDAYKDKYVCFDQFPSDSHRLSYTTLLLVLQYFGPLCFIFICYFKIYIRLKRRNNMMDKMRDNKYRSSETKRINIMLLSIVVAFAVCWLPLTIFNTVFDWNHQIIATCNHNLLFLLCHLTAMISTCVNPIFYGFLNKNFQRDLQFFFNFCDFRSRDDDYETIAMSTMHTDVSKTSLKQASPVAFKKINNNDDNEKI

[20] = target: Disintegrin and metalloproteinase domain-containing protein 17 (Homo sapiens, UniProt P78536); assay: exosite inhibitors of ADAM17, dose response, biochemical (AID 743260)
[21] = system: HEK293; assay: Fluorescence-based counterscreen for potentiators or agonists of NPY-Y1: cell-based high-throughput dose response assay for inhibitors of cyclic nucleotide gated ion channel (CNGC) activity. In this assay, the parental HEK293 cell line transfected with a cyclic-nucleotide gated ion channel (CNGC)-based cAMP sensor is used to measure inhibition of isoproterenol-induced CNGC …; format: functional; conditions: Homo sapiens
[22] = HGIII-sPLA2 enzyme inhibition potency – biochemical, QFRET, IC50, dose response (AID 743457);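 note: green fluorescence rise as the enzyme cleaves BODIPY PC-A2 in liposomes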
[23] = target: T3, Neuropeptide Y receptor type 2; assay: Fluorescence-based counterscreen for agonists of NPY-Y1: cell-based high-throughput dose response assay for agonists of NPY-Y2.; format: functional
[24] = target: T5, Neuropeptide Y receptor type 1; assay: Fluorescence-based dose response cell-based high-throughput screening assay for agonists of NPY-Y1. [Related pubchem assays: 1697 (Screening assay (NPY-Y1 agonists).), 1359 (Screening assay (NPY-Y2 potentiators or agonists).), 1304 (Screening assay (NPY-Y1 potentiators or agonists).), 1704 (Screening assay (CNGC inhibitors).), 1791 (Summary AID.)]; format: functional

Sequence of Induced myeloid leukemia cell differentiation protein Mcl-1 (Q07820 whole entry): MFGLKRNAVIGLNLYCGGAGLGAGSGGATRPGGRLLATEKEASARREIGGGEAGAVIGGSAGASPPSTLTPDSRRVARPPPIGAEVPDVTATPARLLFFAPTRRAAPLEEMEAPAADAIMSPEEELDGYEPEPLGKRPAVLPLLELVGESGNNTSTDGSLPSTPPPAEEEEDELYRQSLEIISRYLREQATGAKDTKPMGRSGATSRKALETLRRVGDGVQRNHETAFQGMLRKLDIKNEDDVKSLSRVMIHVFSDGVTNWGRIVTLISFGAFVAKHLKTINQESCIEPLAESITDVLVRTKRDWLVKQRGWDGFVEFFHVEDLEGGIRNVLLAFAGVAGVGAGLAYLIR
Sequence of Epstein-Barr nuclear antigen 1 (P03211 whole entry): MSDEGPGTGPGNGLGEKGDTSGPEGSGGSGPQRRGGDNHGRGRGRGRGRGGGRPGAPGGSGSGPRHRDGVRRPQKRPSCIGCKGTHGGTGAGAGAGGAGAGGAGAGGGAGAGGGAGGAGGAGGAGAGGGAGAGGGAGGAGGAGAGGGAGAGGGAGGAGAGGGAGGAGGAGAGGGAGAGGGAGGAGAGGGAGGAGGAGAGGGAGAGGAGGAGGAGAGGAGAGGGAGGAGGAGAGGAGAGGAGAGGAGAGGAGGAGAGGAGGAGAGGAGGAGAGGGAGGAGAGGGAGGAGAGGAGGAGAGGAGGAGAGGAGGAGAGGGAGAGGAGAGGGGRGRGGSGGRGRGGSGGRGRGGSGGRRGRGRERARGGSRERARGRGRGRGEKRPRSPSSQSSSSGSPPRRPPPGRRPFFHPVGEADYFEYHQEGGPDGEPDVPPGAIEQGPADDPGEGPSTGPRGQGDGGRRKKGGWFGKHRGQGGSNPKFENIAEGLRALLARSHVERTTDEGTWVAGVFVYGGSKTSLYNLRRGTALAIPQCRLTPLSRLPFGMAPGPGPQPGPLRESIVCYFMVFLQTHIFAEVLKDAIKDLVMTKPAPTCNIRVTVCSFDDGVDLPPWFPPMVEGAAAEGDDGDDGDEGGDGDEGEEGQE
Sequence of Bcl-2-like protein 1 (Q07817 whole entry): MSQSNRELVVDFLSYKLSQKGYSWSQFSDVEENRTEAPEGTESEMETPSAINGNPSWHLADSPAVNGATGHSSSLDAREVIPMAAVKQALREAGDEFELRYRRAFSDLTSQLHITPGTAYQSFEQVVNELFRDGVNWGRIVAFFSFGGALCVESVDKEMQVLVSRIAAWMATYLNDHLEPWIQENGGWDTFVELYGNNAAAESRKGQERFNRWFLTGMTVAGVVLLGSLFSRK
Sequence of Lytic switch protein BZLF1 (P03206 whole entry): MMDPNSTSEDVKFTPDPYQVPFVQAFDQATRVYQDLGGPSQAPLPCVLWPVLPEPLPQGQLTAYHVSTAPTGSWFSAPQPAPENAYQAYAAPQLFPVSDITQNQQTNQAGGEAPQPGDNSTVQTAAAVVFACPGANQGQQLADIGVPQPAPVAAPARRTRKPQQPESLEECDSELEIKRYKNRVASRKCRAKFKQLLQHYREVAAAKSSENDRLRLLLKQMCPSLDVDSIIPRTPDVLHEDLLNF
Sequence of NADPH oxidase 1 (Q9Y5S8 whole entry): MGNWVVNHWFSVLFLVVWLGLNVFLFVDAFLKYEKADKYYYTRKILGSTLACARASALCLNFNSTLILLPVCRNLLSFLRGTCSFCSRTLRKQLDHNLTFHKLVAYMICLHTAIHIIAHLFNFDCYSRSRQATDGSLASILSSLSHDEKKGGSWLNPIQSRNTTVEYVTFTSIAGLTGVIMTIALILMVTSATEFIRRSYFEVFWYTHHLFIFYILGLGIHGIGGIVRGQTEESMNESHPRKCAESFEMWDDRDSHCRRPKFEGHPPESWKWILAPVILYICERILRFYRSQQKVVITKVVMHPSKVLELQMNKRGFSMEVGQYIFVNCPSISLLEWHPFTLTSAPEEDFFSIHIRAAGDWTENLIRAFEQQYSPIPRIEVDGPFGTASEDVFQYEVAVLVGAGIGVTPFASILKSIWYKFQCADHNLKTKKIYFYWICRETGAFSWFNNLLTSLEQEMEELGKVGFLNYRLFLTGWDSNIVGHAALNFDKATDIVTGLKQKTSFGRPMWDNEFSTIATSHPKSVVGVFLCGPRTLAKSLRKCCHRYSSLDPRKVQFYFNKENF
Sequence of Sphingosine 1-phosphate receptor 2 (O95136 whole entry): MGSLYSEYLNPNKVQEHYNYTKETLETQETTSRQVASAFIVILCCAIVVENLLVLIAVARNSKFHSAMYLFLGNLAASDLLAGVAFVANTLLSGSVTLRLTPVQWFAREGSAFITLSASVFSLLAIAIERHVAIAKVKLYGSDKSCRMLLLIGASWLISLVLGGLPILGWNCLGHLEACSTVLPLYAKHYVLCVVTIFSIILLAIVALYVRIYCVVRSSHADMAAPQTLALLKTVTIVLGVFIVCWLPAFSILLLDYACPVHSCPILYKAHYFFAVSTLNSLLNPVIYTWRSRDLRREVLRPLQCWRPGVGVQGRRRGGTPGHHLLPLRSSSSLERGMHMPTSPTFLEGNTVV
Sequence of Alkaline phosphatase, placental type (P05187 whole entry): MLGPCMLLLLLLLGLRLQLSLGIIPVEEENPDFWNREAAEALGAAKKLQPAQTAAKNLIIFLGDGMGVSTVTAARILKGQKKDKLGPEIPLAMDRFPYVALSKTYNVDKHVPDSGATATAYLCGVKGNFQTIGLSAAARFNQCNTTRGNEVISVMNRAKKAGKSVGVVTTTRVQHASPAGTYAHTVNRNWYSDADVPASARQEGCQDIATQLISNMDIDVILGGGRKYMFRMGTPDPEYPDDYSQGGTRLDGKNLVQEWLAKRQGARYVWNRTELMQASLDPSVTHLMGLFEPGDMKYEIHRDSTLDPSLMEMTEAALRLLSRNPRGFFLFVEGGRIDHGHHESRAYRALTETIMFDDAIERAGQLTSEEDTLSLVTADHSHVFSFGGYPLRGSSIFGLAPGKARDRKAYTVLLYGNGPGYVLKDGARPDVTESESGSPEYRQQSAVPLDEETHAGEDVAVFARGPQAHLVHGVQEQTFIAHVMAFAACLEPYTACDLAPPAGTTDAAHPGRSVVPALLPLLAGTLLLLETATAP
Sequence of Large T antigen (P03070 whole entry): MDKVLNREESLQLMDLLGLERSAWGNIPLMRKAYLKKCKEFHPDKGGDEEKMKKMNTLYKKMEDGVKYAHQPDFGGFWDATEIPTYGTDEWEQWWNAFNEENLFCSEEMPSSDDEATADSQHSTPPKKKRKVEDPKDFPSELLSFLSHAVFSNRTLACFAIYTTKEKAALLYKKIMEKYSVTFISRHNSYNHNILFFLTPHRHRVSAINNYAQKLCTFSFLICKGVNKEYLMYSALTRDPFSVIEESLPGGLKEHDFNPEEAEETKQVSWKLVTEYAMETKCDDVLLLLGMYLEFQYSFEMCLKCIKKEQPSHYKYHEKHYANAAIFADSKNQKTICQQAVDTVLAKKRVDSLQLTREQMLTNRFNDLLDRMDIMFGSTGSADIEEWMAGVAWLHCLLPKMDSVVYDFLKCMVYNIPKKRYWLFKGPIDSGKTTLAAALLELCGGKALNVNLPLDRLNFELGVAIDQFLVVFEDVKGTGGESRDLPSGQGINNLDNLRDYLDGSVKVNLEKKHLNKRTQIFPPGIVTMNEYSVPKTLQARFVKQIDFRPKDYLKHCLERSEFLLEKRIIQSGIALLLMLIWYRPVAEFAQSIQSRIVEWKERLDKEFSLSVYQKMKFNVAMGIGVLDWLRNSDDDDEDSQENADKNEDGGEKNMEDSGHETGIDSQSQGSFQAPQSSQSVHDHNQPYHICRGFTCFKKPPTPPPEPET
Sequence of Disintegrin and metalloproteinase domain-containing protein 17 (P78536 whole entry, the tested form may be a part): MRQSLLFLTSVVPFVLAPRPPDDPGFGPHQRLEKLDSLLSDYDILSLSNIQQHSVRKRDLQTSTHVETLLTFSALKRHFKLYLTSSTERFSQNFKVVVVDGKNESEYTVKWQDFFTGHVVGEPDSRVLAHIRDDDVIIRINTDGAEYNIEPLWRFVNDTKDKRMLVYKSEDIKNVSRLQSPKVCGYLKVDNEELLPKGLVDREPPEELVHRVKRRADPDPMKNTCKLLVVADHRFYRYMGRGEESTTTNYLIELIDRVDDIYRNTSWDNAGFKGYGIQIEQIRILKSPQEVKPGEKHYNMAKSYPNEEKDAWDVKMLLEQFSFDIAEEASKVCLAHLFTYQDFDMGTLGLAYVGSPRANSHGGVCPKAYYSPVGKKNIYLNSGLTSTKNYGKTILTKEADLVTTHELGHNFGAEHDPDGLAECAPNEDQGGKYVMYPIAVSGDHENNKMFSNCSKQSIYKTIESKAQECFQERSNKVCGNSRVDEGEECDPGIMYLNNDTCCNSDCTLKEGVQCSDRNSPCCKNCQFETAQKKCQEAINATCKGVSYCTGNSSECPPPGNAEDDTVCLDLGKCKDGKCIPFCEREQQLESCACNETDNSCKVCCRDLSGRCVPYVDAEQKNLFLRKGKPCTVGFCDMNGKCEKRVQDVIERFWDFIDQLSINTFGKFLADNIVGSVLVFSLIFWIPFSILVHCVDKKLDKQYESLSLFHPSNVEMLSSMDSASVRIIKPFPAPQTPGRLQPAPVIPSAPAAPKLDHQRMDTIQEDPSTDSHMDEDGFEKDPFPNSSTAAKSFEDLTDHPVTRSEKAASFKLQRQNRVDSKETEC

SMILES: Cc1cc(C(=O)COC(=O)C2CCC2)c(C)n1Cc1ccccc1
EC50 [1]: > 30 µM (not active)

SMILES: c1ccc(-c2ccc(C3=Nn4c(nnc4-c4cc(-c5ccccc5)[nH]n4)SC3)cc2)cc1
IC50 [2]: 16.1 µM (not active) | IC50 [3]: > 111 µM (not active)

SMILES: CC(C)Cc1ccc(CN2CCCC(NC(=O)CSc3nncn3C)C2)cc1 (centres undefined)
EC50 [4]: > 60 µM (not active) | EC50 [5]: 0.071 µM (active) | EC50 [6]: < 0.1 µM (active)

SMILES: CC(C)/N=c1\scc(-c2cccs2)n1/N=C/c1ccc(O)c(O)c1O
AC50 [15]: 3.46 µM (active) | EC50 [16]: 22 µM (not active) | IC50 [17]: 12.8 µM (inactive) | IC50 [18]: > 50 µM (not active) | EC50 [19]: > 35.4 µM (not active) | IC50 [20]: 31.2 µM (inactive) | IC50 [21]: > 35.4 µM (not active) | IC50 [22]: 41.3 µM (inactive) | EC50 [23]: 24.3 µM (not active) | EC50 [24]: > 3.94 µM (active)

Other lines, results leading:

IC50 [7]: > 51.6 µM (active) | IC50 [8]: 0.048 µM (active)
SMILES: CN(C)c1ccc(NC(=O)Nc2cccc(Cl)c2)cc1

IC50 [9]: 9.37 µM (active) | AC50 [10]: 4.18 µM (active) | IC50 [11]: 22.2 µM (active) | IC50 [12]: 14.5 µM (active) | IC50 [13]: > 109 µM (not active) | IC50 [14]: 2.92 µM (active)
SMILES: C=CCn1c(SCC(=O)c2ccc(O)c(O)c2)nnc1-c1cccnc1
